This note sets out measurements from PMC7998250, “Temperate Zone Plant Natural Products—A Novel Resource for Activity against Tropical Parasitic Diseases” (Pharmaceuticals, 2021).

Data set [1] relates to T. brucei bloodstream form. Put plainly: Initial screen, T. brucei bloodstream form, Alamar Blue. Format: cell-based, Trypanosoma brucei brucei. The note with it: for activity at 2 µM / inhibition of growth at 2 µM: Trypanosoma brucei; for initial hit against T. brucei: growth reduced by ≥50%; for inhibition of growth at 2 µM: read-out: initial hit T.b. The gist of the method:
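Bloodstream-form T. evansi Antat 3/3 and T. brucei Lister 427 were grown in HMI-11 with 10% FBS at 37 °C. Parasites were plated at 1×10^5 cells/mL with compound at 1 μM (T. evansi) or 2 μM (T. brucei) for 48 h, and growth was read by Alamar Blue relative to 1% DMSO controls (n = 6).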
On the technique in general: The colour change of resazurin is a common sign of viable cells or microbes.

The subject of data set [2] is P. falciparum Dd2Luc intraerythrocytic trophozoites. In words: Initial screen, intraerythrocytic P. falciparum, Malaria SYBR-Green I fluorescence assay. Format: cell-based, Plasmodium falciparum. The note with it: for activity at 2 µM / inhibition of growth at 2 µM: Plasmodium falciparum, 48 h; for initial hit against P. falciparum: 2 μM, growth reduced by ≥50%; for inhibition of growth at 2 µM: read-out: initial hit P.f. Summed up: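 L. mexicana axenic amastigotes at 1 × 10^6 cells/mL exposed 72 h to compounds at 2 μM, growth read by Alamar Blue; P. falciparum trophozoites at 0.5% parasitaemia, 2% haematocrit, 48 h at 2 μM, SYBR-Green I read-out. Growth normalised to 1% DMSO; hits ≥50% growth reduction.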

A further data set can be described thus: in vitro. The note with it: human. Summed up:
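Human hepatoma cells seeded at 1 × 10^5 cells/mL with two-fold serial compound dilutions, incubated 48 h at 37 °C, 5% CO2 in DMEM/10% FBS. Viability read by Alamar Blue. CC50 estimated from viability normalised to untreated controls versus log concentration.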

The mark [3] stands for this setting: mean % growth compared to a normalised control with same concentration of DMSO solvent, initial screen, read-out: % growth T. b. brucei.
[4] abbreviates: read-out: %growth P. falciparum, mean % growth compared to a normalised control with same concentration of DMSO solvent, initial screen.
Setting [5] is: initial screen, compared to a normalised control with same concentration of DMSO solvent.
The mark [6] stands for this setting: read-out: mean % growth, T. b. brucei, initial screen, compared to a normalised control with same concentration of DMSO solvent.
Setting [7] is: read-out: mean % growth, P. falciparum, initial screen, compared to a normalised control with same concentration of DMSO solvent.

Where two headings read alike, the source gives them in different places.

Turning to `CC1=CC(O)(CC(C)C2(C)CC=C3C4=CCC5C(C)(C)C(O)CCC5(C)C4CCC32C)OC1=O` (stereo not drawn) [Compound 700022], the activity at 2 µM in data set [1] (setting [3]) worked out at 53.5%; in data set [2] (setting [4]) it was 105%. The compound further registered a CC50 at 48 h in “in vitro” (pH 7, HepG2 CC50) of 28 µM.
Turning to `CC1OC(OC2C(OC(=O)C3CC[C@@H]4[C@H](C3)OC3(CC(OC(=O)/C=C/c5ccccc5)[C@@H](C)CO3)C43CO3)OC(CO)C(O)C2O)C(O)C(O)C1O` (stereo partly drawn) [Compound 700042], in data set [1] (2 μM), the “initial hit against T. brucei” value is given as “initial hits”. In addition, the activity at 2 µM amounted to 1.6% in data set [1] (read-out: % growth T. b. brucei, mean % growth compared to a normalised control with same concentration of DMSO solvent, initial screen) and 28.9% in data set [2] (setting [4]). In addition, the inhibition of growth at 2 µM in data set [1] and in data set [2] was more than 50% each time. In addition, in data set [2], the “initial hit against P. falciparum” value was “initial hits”. Further, the CC50 at 48 h in the data set “in vitro” (pH 7, HepG2 CC50, 48 h) was 2.5 µM.
In the case of `CC1=CC(O)(CC(C)C2(C)CCC3C4=CCC5C(C)(CCC(O)C5(C)C)C4=CCC32C)OC1=O` (stereo not drawn) [Compound 700107], the results for the activity at 2 µM in data set [1] (setting [3]) and in data set [2] (setting [4]) were 85.2% and 96.8%, respectively. In “in vitro” (pH 7, HepG2 CC50), this compound returned a CC50 at 48 h of 45 µM.
Consider `CC1=CC(O)(CC(C)C2(C)CC=C3C4=CCC5C(C)(C)C(=O)CCC5(C)C4CCC32C)OC1=O` (stereo not drawn) [Compound 700136], for which the activity at 2 µM in data set [1] (setting [3]) was 104%; in data set [2] (setting [4]), 99.9%. In addition, the CC50 at 48 h in “in vitro” (pH 7, HepG2 CC50) turned out to be 28 µM.
In the case of `C/C(=C/C(=O)CC(C)C1CCC2(C)C3=CCC4C(C)(C)C(=O)CCC4(C)C3CCC12C)C(=O)O` (stereo not drawn) [Compound 700240], the results for the activity at 2 µM in data set [1] (setting [3]) and in data set [2] (setting [4]) were 72.9% and 77.9%, respectively. In “in vitro” (pH 7, HepG2 CC50), this compound came in with a CC50 at 48 h of 47 µM.
On to `C=C1C(=O)OC2CC(C)C3C=CC(=O)C3(C)C(OC(C)=O)C12` (stereo not drawn) [Compound 701155], for which the “initial hit against T. brucei” value in data set [1] (2 μM) was “initial hits”. For the same compound, the “mean % growth, T. b. brucei” value in data set [1] (setting [5]) is -0.8%. Moreover, the “mean % growth, P. falciparum” value in data set [2] (setting [5]) worked out at 55.1%.
With `C=C1C(=O)OC2CC(C)C3C=CC(=O)C3(C)C(OC(=O)C(C)C)C12` (stereo not drawn) [Compound 701157], the “initial hit against T. brucei” value in data set [1] (2 μM) is “initial hits”. In data set [1], the inhibition of growth at 2 µM was more than 50%. Further, the figures for the activity at 2 µM in data set [1] (setting [6]) and in data set [2] (setting [7]) were -1.8% and 51.9%, respectively. For the same compound, in the data set “in vitro” (pH 7, HepG2 CC50, 48 h), the CC50 at 48 h was found to be 1.3 µM.
`C=C1C(=O)OC2CC(C)C3C=CC(=O)C3(C)C(OC(=O)C(C)CC)C12` (stereo not drawn) [Compound 701158]: the “initial hit against T. brucei” value in data set [1] (2 μM) is “initial hits”. For the same compound, the inhibition of growth at 2 µM in data set [1] and in data set [2] was more than 50% throughout. The activity at 2 µM in data set [1] (setting [6]) is -1.3%; in data set [2] (setting [7]), 49%. Besides, in data set [2], the “initial hit against P. falciparum” value is given as “initial hits”. For the same compound, the CC50 at 48 h in the data set “in vitro” (pH 7, HepG2 CC50, 48 h) was 0.8 µM.
On to `C=C1C(=O)OC2CC(C)C3C(OC)CC(=O)C3(C)C(OC(=O)C(C)CC)C12` (stereo not drawn) [Compound 701159], for which the “initial hit against T. brucei” value in data set [1] (2 μM) was “initial hits”. For the same compound, the activity at 2 µM in data set [1] (initial screen, compared to a normalised control with same concentration of DMSO solvent, read-out: mean % growth, T. b. brucei) is 13.7%; in data set [2] (setting [7]), 83.7%. In addition, the inhibition of growth at 2 µM in data set [1] (2 μM, x = initial hit) was more than 50%. In “in vitro” (pH 7, HepG2 CC50, 48 h), this compound returned a CC50 at 48 h of 3.4 µM.
